The text below walks through data of patent publication US20230048350A1, “BENZOCOUMARIN AMPK ACTIVATOR COMPOUNDS, COMPOSITIONS, METHODS AND USES THEREOF” (SOCIETE DES PRODUITS NESTLE S.A., priority 2019, published 2023).

“Also recorded” adds a separate entry of the source.

In test [1] the test system is AMPK β1 S108A mutant (ADaM-binding site mutant). The test can be described thus: pACC HTRF assay in AMPKβ1/β2 double knockout U-2 OS cells stably expressing β1 S108A mutant. The conditions noted are these: varying concentrations. The class given is cell-based, human. An excerpt: (§1) AMPKβ1/β2 double knockout U-2 OS Flp-In™ T-Rex™ cell lines were generated by Horizon Discovery (Cambridge, UK). Cells were genotyped and analysed by western blotting to confirm that there was a complete knockout of AMPKβ1/β2. We took these AMPKβ1/β2 double knockout cells, and re-introduced the expression of human β1 wild-type (WT) or a […] Serine 108 to alanine mutation (S108A). This was achieved using the Flp-In™ system (Invitrogen) present in this cell line and stable cells expressing β1 WT or a β1 S108A mutant were generated according to the manufacturers' protocols. Re-expression of the β1 subunit was confirmed by Western blot analysis.
(§2) Cells stably expressing β1 WT or a β1 S108A mutant were treated with varying concentrations of Compound 1 and subjected to the pACC HTRF (Cisbio) assay to determine the level of phosphorylation of the AMPK substrate, ACC, in cell lysates.
On the technique in general: In TR-FRET formats the signal depends on donor and acceptor labels being close together.

In another test the test system is AMPK. The test can be described thus: pACC HTRF assay in U-2 OS Flp-In T-REx cells. The class given is cell-based. The conditions noted are these: 30 mins, varying concentrations, HTRF 665 nm/620 nm ratio. The protocol:
U-2 OS Flp-In T-REx cells were seeded at 50 K in a 96-well plate and left overnight at 37 C in DMEM GlutaMAX (Thermo Fisher Scientific) supplemented with 10% (vol/vol) FBS and 100 U/ml penicillin G, and 100 μg/ml streptomycin. Cells were treated for 30 mins with varying concentrations of Compound 1 in media lacking FBS and then cells were lysed in 50 μl of Cisbio lysis buffer #1 supplemented with blocking solution as per the manufacturer's protocol (Cisbio). Cells were lysed for 30 mins at room temperature before 16 μl of lysate was incubated with 4 μl of the HTRF antibodies (1:40 dilution of the acceptor and donor (p)ACC antibodies, as per the manufacturers protocol). Lysates were incubated overnight with the antibodies before 665 nm/620 nm ratio was determined using a MolecularDevices i3 plate reader (with a HTRF cartridge add-on).
Phosphorylation of ACC is widely used as a cellular indicator of AMPK activity.

A further test relates to AMPK β1 WT. As to the kind of experiment: pACC HTRF assay in AMPKβ1/β2 double knockout U-2 OS cells stably expressing β1 WT. The class given is cell-based, human. The conditions noted are these: varying concentrations.
Text: as §1, §2
(§3) AMPKβ1/β2 double knockout cells were used and re-introduced the expression of human β1 WT or β2 WT isoforms. […] Cells stably expressing β1 WT or β2 were treated with varying concentrations of Compound 1 and subjected to the pACC HTRF (Cisbio) assay to determine the level of phosphorylation of the AMPK substrate, ACC, in cell lysates, as in Example 1.

For a further test, the system named is AMPK β2 WT isoform. As to the kind of experiment: pACC HTRF assay in AMPKβ1/β2 double knockout U-2 OS cells stably expressing β2 WT. The format is cell-based, human. The settings on record: varying concentrations. The protocol: as §3
This activation profile is characteristic of activators that bind to the ADaM site and consistent with previous studies showing that ADaM-site activators have poorer activation of β2-containing complexes in vitro and in cells.

Turning to `COc1cc(O)c2c(c1)c(=O)oc1cc(O)ccc12` [Compound 1, 3,10-Dihydroxy-8-methoxy-6H-benzo[c]chromen-6-one], the “phosphorylation of the AMPK substrate, ACC (pACC); AMPK activation” value is “does not activate AMPK; also recorded: not able to increase pACC” in test [1], “activates AMPK; also recorded: able to dose-dependently increase pACC” in the test on AMPK β1 WT and “does not activate AMPK; also recorded: not able to increase pACC” in the test on AMPK β2 WT isoform. In the test on AMPK, the “phosphorylation of the AMPK substrate, ACC (pACC)” value is on record as “increases the phosphorylation of the AMPK substrate, ACC, in a dose-dependent manner”.
